Converted amounts (≈) assume the structure as drawn.
Assays:
Experiment in all cases: In vitro antifungal activity, microbroth dilution (MIC)
Assay type in all cases: cell-based
C. glabrata 61L = conditions: Nakaseomyces glabratus; C. glabrata 61L; 35 °C, 24 h; read-out: MIC
Procedure: (§1) The in vitro antifungal screening results of synthesized compounds was evaluated against three fungal strains: C. parapsilosis ATCC 22019, C. utilis 84, and C. glabrata 61L are summarized in Table 1.
(§2) The in vitro antifungal activity of the target compounds was measured by means of the minimal inhibitory concentrations (MIC) with fluconazole as the control drug. Procedure was carried out by the microbroth dilution method in 96-well plates according to the recommendations of the Clinical and Laboratory Standards Institute. The detailed information was reported previously. The investigated pathogenic species included C. parapsilosis ATCC 22019, C. utilis 84 and C. glabrata 61. The sensitivity was evaluated visually, after the incubation at 35 °C for 24 h and the value was compared with the growth density in the reference culture without the sample. Each test was conducted in triplicate.

[1] = test system: C. parapsilosis ATCC 22019; conditions: Lodderomyces parapsilosis, ATCC22019; C. parapsilosis ATCC 22019; 35 °C, 24 h; read-out: MIC
Procedure: as §1, §2

C. utilis 84 = conditions: Williopsis jadinii; C. utilis 84; 35 °C, 24 h; read-out: MIC
Procedure: as §1, §2

- MIC (C. glabrata 61L): 8 µg/mL (≈ 26.1 µM)
- MIC [1]: 2 µg/mL (≈ 6.53 µM)
- MIC (C. utilis 84): 2 µg/mL (≈ 6.53 µM)
Compound: OC(Cn1cncn1)(Cn1cncn1)c1ccc(F)cc1F [Fluconazole, reference compound]

From article PMC9573696, “Experimental Examination of Solubility and Lipophilicity as Pharmaceutically Relevant Points of Novel Bioactive Hybrid Compounds” (Molecules, 2022)
